Inconclusive results and toxic doses are left out. How the source made its calls: active means survival T/C of 150% or more; inactive means T/C below 125% in these data.
System: BDF1 mice, L1210 Methyl-GAG-resistant leukemia, survival T/C
Assay: NCI In Vivo Anticancer Drug Screen. Data for tumor model L1210 Leukemia resistant to Methyl-GAG; NSC 32946 (subcutaneous) in B6D2F1 (BDF1) mice
Conditions: endpoint: mean survival time, schedule: Q01DX Z (ip), higher = longer survival
Procedure: The antitumor activity of compounds was measured in mice bearing transplantable tumors. Survival or tumor size were measured and the results are expressed as the measurement made in the treated group (T) divided by the measurement made in the vehicle treated control group (C). The tumor model used in this assay is L1210 Leukemia resistant to Methyl-GAG; NSC 32946 (subcutaneous) in B6D2F1 (BDF1) mice

[1] = dose: 6.25 mg/kg/injection, vehicle: carboxymethylcellulose (CMC)
[2] = dose: 12.5 mg/kg/injection, vehicle: carboxymethylcellulose (CMC)
[3] = dose: 25.0 mg/kg/injection, vehicle: carboxymethylcellulose (CMC)

Measured: T/C

CCCCn1cnc2c(=S)nc[nH]c21
inactive: dose: 3.1 mg/kg/injection, vehicle: carboxymethylcellulose (CMC) 91 % of control | [1] 113 % of control | [2] 97 % of control | [3] 103 % of control

CN(C)c1ccc(/C=C/c2ccnc3ccccc23)cc1
inactive: dose: 3.1 mg/kg/injection, vehicle: water 102 % of control | dose: 3.12 mg/kg/injection, vehicle: carboxymethylcellulose (CMC) 100 % of control | [1] 96 % of control | dose: 6.25 mg/kg/injection, vehicle: water 97 % of control | [2] 94 % of control | dose: 12.5 mg/kg/injection, vehicle: water 97 % of control | [3] 100 % of control | dose: 25.0 mg/kg/injection, vehicle: water 100 % of control | dose: 50.0 mg/kg/injection, vehicle: carboxymethylcellulose (CMC) 94 % of control | dose: 50.0 mg/kg/injection, vehicle: water 91 % of control | dose: 100.0 mg/kg/injection, vehicle: carboxymethylcellulose (CMC) 100 % of control

Source: PubChem BioAssay AID306 (DTP/NCI, 2004)
